Like-named read-outs stand apart in the source and are kept apart here. Where a SMILES comes first, the peptide text is derived from it. [ ]: non-standard residue; d: D form. ξ: configuration not given here. Ala(6-(2-MePh)pyridin-3-yl) = Cc1ccccc1-c1ccc(C[C@H](N)C(=O)O)cn1; Bip(2'-Et-4'-OMe) = CCc1cc(OC)ccc1-c1ccc(C[C@H](N)C(=O)O)cc1; Bip(2'-Me) = Cc1ccccc1-c1ccc(C[C@H](N)C(=O)O)cc1; αMePhe(2-F) = C[C@](N)(Cc1ccccc1F)C(=O)O; ξαMePhe(2-F) = CC(N)(Cc1ccccc1F)C(=O)O; Thr(3ξ) = CC(O)[C@H](N)C(=O)O; ξαMeP = CC1(C(=O)O)CCCN1; Aib = CC(C)(N)C(=O)O
Assays:
ob/ob mice = test: intraperitoneal glucose tolerance test (ipGTT) after sc injection in ob/ob mice (plasma glucose, insulin); format: in vivo; settings: for % AUC Reduction in Plasma Glucose in an IP Glucose Tolerance Test after SC Injection of Compound: 10 nmol/kg, vs vehicle group; for effect on postprandial plasma glucose (in words): ipGTT 0-180 or 210 min; for Potency in ob/ob mice, ED50: sc injection, ipGTT, plasma glucose AUC
Protocol: (§1) Peptides were dissolved in an appropriate vehicle at a concentration in nmol/ml equivalent to the dose that was to be administered in nmol/kg so that each mouse would receive the same volume/weight of dosing solution. Male C57BL/6J-ob/ob mice (10 weeks old) were randomized into groups of 6 mice per group based on fed plasma glucose and body weight. After an overnight fast, mice were weighed and placed in the experimental lab. After 30 min in the environment, the mice were bled via tail tip at −30 min and immediately injected subcutaneously (sc) with vehicle or the peptide dissolved in vehicle (0.1 ml solution/100 g body weight). At time 0 the mice were bled and then injected intraperitoneally with 50% glucose (2 g/kg) to initiate the intraperitoneal glucose tolerance test (ipGTT). The mice were bled 30, 60, 120 and 180 min after the glucose injection. Blood samples were drawn into potassium EDTA, placed on ice during the study and subsequently centrifuged for 10 min at 3000 rpm at 4° C. Plasma samples were diluted 11-fold for glucose analysis in the Cobas System. Another 5 μl plasma sample was diluted 5-fold with 20 μl of Sample Diluent (Insulin ELISA assay kit, Crystal Chem Inc.) and stored at −20° C. for subsequent analysis using the Ultra Sensitive Mouse Insulin ELISA kit (Crystal Chem Inc.).

[1] = Dog pharmacokinetic study (iv and sc, solution vehicles); format: in vivo; settings: for Exposure in dogs (sc@67 μg/kg): Table I; for AUC: Table II, read-out: Exposure in dogs (sc@67 μg/kg)
Protocol: The pharmacokinetic parameters of the compound of SEQ ID NO:9 were determined in male beagle dogs (n=4, 14±1 kg). Following an overnight fast, each animal received the compound of SEQ ID NO:9 either as an intravenous bolus via femoral vein (67 μg/kg) or by subcutaneous injection given at near the shoulder blades (67 μg/kg). Each animal received both intravenous and subcutaneous doses with a one-week washout between doses following a crossover design. […] Serial blood samples were collected in EDTA-containing microcentrifuge tubes at predose, 0.083, 0.25, 0.5, 0.75, 1, 2, 4, 6, 8, 24, and 30 hours post-dose after intravenous administration; at predose, 0.25, 0.5, 0.75, 1, 2, 4, 6, 8, 24, and 30 hours post-dose after subcutaneous administration. Approximately 0.3 mL of blood was collected at each time point. Blood samples were immediately centrifuged at 4° C. The obtained plasma was frozen with dry ice and stored at −20° C. Plasma drug levels were determined using the LC-MS/MS assay described above.
Plasma samples from in vivo dog study were prepared for analysis by precipitating plasma proteins with two volumes of acetonitrile containing an internal standard. The samples were vortex mixed and removed the precipitated proteins by centrifugation. The resulting supernatants were transferred to a 96-well plate and 10 μL were injected for analysis. Samples were prepared with the Packard Multiprobe II and Quadra 96 Liquid Handling System.
The HPLC system consisted of two Shimadzu LC10AD pumps (Columbia, Md.), a CTC PAL autosampler (Leap Technologies, Switzerland). The column used was a YMC Hydrosphere C18 (2.0×50 mm, 3 μm) (YMC, Inc., Milford, Ma.). The column temperature was maintained at 50° C. and the flow rate was 0.3 mL/minute. The mobile phase A consisted of 10 mM ammonium formate and 0.1% formic acid in water and mobile phase B consisted of 0.1% formic acid in acetonitrile. The initial mobile phase composition was 5% B, and remained at 5% B for one minute to equilibrate the column. The composition was ramped to 95% B over two minutes and held there for one additional minute. The mobile phase was then returned to initial conditions in one minute. Total analysis time was five minutes. A switching valve was used. The eluents between 0-1 minute were diverted to the waste.
The HPLC was interfaced to a Sciex API 4000 mass spectrometer, (Applied Biosystems, Foster City, Calif.) and was equipped with a TurboIonspray ionization source. Ultra high purity nitrogen was used as the nebulizing and turbo gas. The temperature of turbo gas was set at 300° C. and the interface heater was set at 60° C. Data acquisition utilized selected reaction monitoring (SRM). Ions representing the (M+2H)^2+ species for the compound of SEQ ID NO:9, and (M+2H)^2+ for BMS-501143 (IS) were selected in Q1 and were collisionally dissociated with high purity nitrogen at a pressure of 3.5×10^−3torr to form specific product ions which were subsequently monitored by Q3.
The standard curve concentrations, ranging from 1 to 1000 nM and from 4 to 5000 nM, were used for the in vivo samples obtained from low and high doses, respectively. The curves were fitted with a quadratic regression weighted by reciprocal […]. Standards were analyzed in duplicate. Quality control (QC) samples, prepared in blank matrix at the same concentrations as the standard were also analyzed in each analytical set. For the compound of SEQ ID NO:9, the calculated concentrations of more than 80% of the QCs were within 20% of nominal concentration, indicating acceptable assay performance.
The compound of SEQ ID NO:9 plasma concentration vs. time data were analyzed by noncompartmental methods using the […]™ software program. The Cmax and Tmax values were recorded directly from experimental observations. The AUC0-n and AUCtot values were calculated using a combination of linear and log trapezoidal summations. […]

[2] = Exposure during ipGTT in ob/ob mice; format: in vivo; settings: sc
Protocol: as §1

[3] = Solubility of compound of SEQ ID NO:9 in the presence of Zn(II) / Zn adduct; format: physicochemical; settings: pH 6.8, 50 mM phosphate buffer
Protocol: Once the Zn/Compound of SEQ ID NO:9 adduct was formed, formulation development studies were conducted in order to evaluate the solubility of the compound of SEQ ID NO:9 in the presence of Zn(II). An excess amount of the compound of SEQ ID NO:9 was suspended in pH 6.8, 50 mM phosphate buffer. The suspension was then placed on an orbital shaker (Model, 100 RPM) at ambient temperature for 12 hours. The suspension was then centrifuged (Model, speed) and the saturated the clear supernatant of the compound of SEQ ID NO:9 was collected into 10 ml centrifuge tubes. A predetermined amount of zinc acetate solution (50 mM, pH 6.8 phosphate buffer) was added into the saturated solution and then precipitated. The concentration of the compound of SEQ ID NO:9 in solution was obtained by centrifuging the suspension and analyzing the clear supernatants by HPLC.
To confirm that the Zn/Compound of SEQ ID NO:9 binding is reversible, the Zn/Compound of SEQ ID NO:9 adduct was suspended in pH 6.8, 50 mM phosphate buffer. A strong chelating agent for Zn(II), EDTA, was added into the suspension in excess amount. The Zn/Compound of SEQ ID NO:9 suspension with and without EDTA was centrifuged and the supernatants were injected into HPLC.

[4] = Solubility of protamine/Compound of SEQ ID NO:9 adduct and in protamine solution; format: physicochemical; settings: MeOH
Source text: Thus, the administration of the protamine/Compound of SEQ ID NO:9 adduct may need a suitable suspending agent; or it maybe injected as dry powder.
Therefore, suspension of the compound of SEQ ID NO:9 in the presence of protamine could still provide extended release effect without using pre-formed protamine/SEQ ID NO:9 adduct.

[5] = male, beagle, dog, plasma, sc, 67 ug/kg, vehicle propylene glycol/pH 7.4 phosphate buffer (1:1)
[6] = male, beagle, plasma, sc, 67 ug/kg, dog, subcutaneous 67 μg/kg, propylene glycol:phosphate buffer (50:50)

CCc1cc(OC)ccc1-c1ccc(C[C@H](NC(=O)[C@H](CC(=O)O)NC(=O)[C@H](CO)NC(=O)[C@@H](NC(=O)[C@](C)(Cc2ccccc2F)NC(=O)[C@@H](NC(=O)CNC(=O)[C@H](CCC(=O)O)NC(=O)C(C)(C)NC(=O)[C@@H](N)Cc2c[nH]cn2)C(C)O)C(C)O)C(=O)N[C@@H](Cc2ccc(-c3ccccc3C)cc2)C(N)=O)cc1 (stereo partly shown) [Compound I, reference compound] (H-H[Aib]EG[Thr(3ξ)][αMePhe(2-F)][Thr(3ξ)]SD[Bip(2'-Et-4'-OMe)][Bip(2'-Me)]-NH2)
% AUC Reduction in Plasma Glucose in an IP Glucose Tolerance Test after SC Injection of Compound (ob/ob mice; ob/ob mice): −15% (p = 0.247, NS)
effect on postprandial plasma glucose (in words) (ob/ob mice; ob/ob mice, sc): decreasing in a dose-dependent manner
Potency in ob/ob mice, ED50 (ob/ob mice): ED50 = 50 nmoles/kg
Potency in ob/ob mice, ED50 (ob/ob mice; listed as compound I): 50 nmol/kg
Exposure in dogs (sc@67 μg/kg) ([1]; vehicle propylene glycol/pH 7.4 phosphate buffer (1:1)): 0.089 µM·h
AUC [1, 5]: 0.089 µM·h
Exposure/dose during ipGTT in ob/ob mice [2]: 22 nM * h/nmol/kg

CCc1cc(OC)ccc1-c1ccc(C[C@H](NC(=O)[C@H](CC(=O)O)NC(=O)[C@H](CO)NC(=O)[C@@H](NC(=O)C(C)(Cc2ccccc2F)NC(=O)[C@@H](NC(=O)CNC(=O)[C@H](CCC(=O)O)NC(=O)C2(C)CCCN2C(=O)[C@@H](N)Cc2c[nH]cn2)[C@@H](C)O)[C@@H](C)O)C(=O)N[C@@H](Cc2ccc(-c3ccccc3C)nc2)C(N)=O)cc1 (stereo partly shown) [SEQ ID NO: 118] (H-H[ξαMeP]EGT[ξαMePhe(2-F)]TSD[Bip(2'-Et-4'-OMe)][Ala(6-(2-MePh)pyridin-3-yl)]-NH2)
% AUC Reduction in Plasma Glucose in an IP Glucose Tolerance Test after SC Injection of Compound (ob/ob mice; ob/ob mice): −70% (p < 0.001)
plasma glucose AUC decrease (ob/ob mice; ob/ob mice, sc, 30 nmol/kg): 81%
effect on postprandial plasma glucose (in words) (ob/ob mice; ob/ob mice, sc): statistically significant decrease
Potency in ob/ob mice, ED50 (ob/ob mice): 2.5 nmol/kg
AUC [1, 5]: 4.02 µM·h
Exposure/dose during ipGTT in ob/ob mice [2]: 4.4 nM * h/nmol/kg

CCc1cc(OC)ccc1-c1ccc(C[C@H](NC(=O)[C@H](CC(=O)O)NC(=O)[C@H](CO)NC(=O)[C@@H](NC(=O)[C@](C)(Cc2ccccc2F)NC(=O)[C@@H](NC(=O)CNC(=O)[C@H](CCC(=O)O)NC(=O)C(C)(C)NC(=O)[C@@H](N)Cc2c[nH]cn2)[C@@H](C)O)[C@@H](C)O)C(=O)N[C@@H](Cc2ccc(-c3ccccc3C)nc2)C(N)=O)cc1 [SEQ ID NO: 9] (H-H[Aib]EGT[αMePhe(2-F)]TSD[Bip(2'-Et-4'-OMe)][Ala(6-(2-MePh)pyridin-3-yl)]-NH2)
solubility thermodynamic ([3]; aqueous buffer, 25° C., excess EDTA): 18 µg/mL
solubility in the presence of Zn(II) / of the Zn adduct (in words) [3]: continued to decrease until below the detection limit of HPLC
% AUC Reduction in Plasma Glucose in an IP Glucose Tolerance Test after SC Injection of Compound (ob/ob mice; ob/ob mice): −68% (p < 0.0001)
effect on postprandial plasma glucose (in words) (ob/ob mice; ob/ob mice, sc): statistically significant decrease
Potency in ob/ob mice, ED50 (ob/ob mice): 5 nmol/kg
Potency in ob/ob mice, ED50 (ob/ob mice; listed as 9): ED50 = 5 nmoles/kg
Exposure in dogs (sc@67 μg/kg) ([1]; vehicle 0.2 M Tris buffer (pH 8.0)): 0.452 µM·h
Vss relative to extracellular fluid ([1]; dog, iv, extracellular fluid 0.14 L/kg): 71 % of extracellular fluid
systemic clearance as % of liver blood flow ([1]; dog, iv, liver blood flow 31 mL/min/kg): 3.2 % of liver blood flow
Vss relative to vascular fluid ([1]; dog, iv, vascular fluid 0.05 L/kg): 2 times of vascular fluid
clearance ([1]; male, beagle, blood, 67 ug/kg, dog, intravenous 67 μg/kg, propylene glycol:phosphate buffer (50:50), read-out: CLB (systemic blood clearance)): 0.9 ± 0.2 mL/min/kg
MRT ([1]; male, beagle, plasma, 67 ug/kg, dog, intravenous 67 μg/kg, propylene glycol:phosphate buffer (50:50)): 3 ± 1 h
clearance ([1]; male, beagle, plasma, 67 ug/kg, dog, intravenous 67 μg/kg, propylene glycol:phosphate buffer (50:50), read-out: CLp): 0.6 ± 0.1 mL/min/kg
Vd ([1]; male, beagle, plasma, 67 ug/kg, dog, intravenous 67 μg/kg, propylene glycol:phosphate buffer (50:50), read-out: VSS): 0.1 ± 0.03 L/kg
Cmax [1, 6]: 90 ± 29 nM
Tmax [1, 6]: 5 ± 1 h
solubility [4]: > 50000 µg/mL
Exposure/dose during ipGTT in ob/ob mice [2]: 18 nM * h/nmol/kg

From patent US7534763B2 (Bristol-Myers Squibb Company, priority 2004, dated 2009)
